Reference: patent US4476120A, “Thiolic derivatives of erythromycin having therapeutic activity, and pharmaceutical compositions containing them” (Sigma Tau Indistrie Farmaceutiche Riunites, p.A, priority 1982, dated 1984)
≈ marks a conversion by molar mass, not a printed value. Structures can show the parent of a compound that is named as a salt. Where two headings read alike, the source gives them in different places.

Legend:
Citrobacter SS 05 = type: cell-based; conditions: Brain Heart Infusion, estolate and RV11-RV15 previously hydrolized, unit assumed
S. heidelberg SS 18 = type: cell-based; conditions: Brain Heart Infusion, estolate and RV11-RV15 previously hydrolized, unit assumed
[1] = in vivo; for Hematic levels in the rat: po, 100 mg/kg
E. coli SS 05 = type: cell-based; conditions: Brain Heart Infusion, estolate and RV11-RV15 previously hydrolized, unit assumed
C. diphtheriae SS 19 = type: cell-based; conditions: Brain Heart Infusion, estolate and RV11-RV15 previously hydrolized, unit assumed
S. lutea ATCC 9341 = type: cell-based; conditions: Brain Heart Infusion, estolate and RV11-RV15 previously hydrolized, unit assumed
Br. melitensis SS 19 = type: cell-based; conditions: unit assumed
[2] = tested on: Strept. haemolyticus SS 18; type: cell-based; conditions: Brain Heart Infusion, estolate and RV11-RV15 previously hydrolized, unit assumed
S. infantis SS 08 = type: cell-based; conditions: Brain Heart Infusion, estolate and RV11-RV15 previously hydrolized, unit assumed
Staph. albus SS 04 = type: cell-based; conditions: Brain Heart Infusion, estolate and RV11-RV15 previously hydrolized, unit assumed
Sr. marcescens SS 03 = type: cell-based; conditions: Brain Heart Infusion, estolate and RV11-RV15 previously hydrolized, unit assumed
Citrobacter SS 09 = type: cell-based; conditions: Brain Heart Infusion, estolate and RV11-RV15 previously hydrolized, unit assumed
H. pertussis SS 03 = type: cell-based; conditions: Brain Heart Infusion, estolate and RV11-RV15 previously hydrolized, unit assumed
E. coli SS 06 = type: cell-based; conditions: Brain Heart Infusion, estolate and RV11-RV15 previously hydrolized, unit assumed
Staph. aureus SS 08 = type: cell-based; conditions: Brain Heart Infusion, estolate and RV11-RV15 previously hydrolized, unit assumed
Staph. albus SS 03 = type: cell-based; conditions: Brain Heart Infusion, estolate and RV11-RV15 previously hydrolized, unit assumed
H. influentiae SS 02 = type: cell-based; conditions: Brain Heart Infusion, estolate and RV11-RV15 previously hydrolized, unit assumed
N. meningitidis SS 04 = type: cell-based; conditions: Brain Heart Infusion, estolate and RV11-RV15 previously hydrolized, unit assumed
Acute toxicity = type: in vivo; conditions: mouse, in vivo
Experimental: The acute toxicity was assessed in Swiss white mice by oral and intravenous route. The LD50 values have been calculated by the methods of Probits, starting from the mortality recorded 10 days after the treatment.

[3] = Hematic levels in the healthy volunteer; type: in vivo, healthy volunteers; conditions: oral, 500 mg of erythromycin, average
Description: For the dosing, the microbiological method using a B. subtilis strain was adopted.

Pr. mirabilis SS 09 = type: cell-based; conditions: Brain Heart Infusion, estolate and RV11-RV15 previously hydrolized, unit assumed
E. aerogenes SS 011 = type: cell-based; conditions: Brain Heart Infusion, estolate and RV11-RV15 previously hydrolized, unit assumed
E. cloacae SS 07 = type: cell-based; conditions: Brain Heart Infusion, estolate and RV11-RV15 previously hydrolized, unit assumed
Kl. aerogenes SS 71 = type: cell-based; conditions: Brain Heart Infusion, estolate and RV11-RV15 previously hydrolized, unit assumed
[4] = Histological examination of bronchi after SO2 inhalation; type: in vivo, Sprague Dawley male rats
H. tubercolosis SS 03 = type: cell-based; conditions: Brain Heart Infusion, estolate and RV11-RV15 previously hydrolized, unit assumed
Description: (§1) In the following table I the MIC/ml values are indicated corresponding to the lowest concentration capable of inducing a complete inhibition of the bacterial development.

Kl. pneumoniae SS 04 = type: cell-based; conditions: Brain Heart Infusion, estolate and RV11-RV15 previously hydrolized, unit assumed
Description: as §1

C. albicans SS 04 = type: cell-based; conditions: Brain Heart Infusion, estolate and RV11-RV15 previously hydrolized, unit assumed
Br. abortus SS 7 = type: cell-based; conditions: Brain Heart Infusion, estolate and RV11-RV15 previously hydrolized, unit assumed
Pr. vulgaris SS 10 = type: cell-based; conditions: Brain Heart Infusion, estolate and RV11-RV15 previously hydrolized, unit assumed
N. gonorreae SS 27 = type: cell-based; conditions: Brain Heart Infusion, estolate and RV11-RV15 previously hydrolized, unit assumed
D. pneumoniae SS 23 [5] = type: cell-based; conditions: Brain Heart Infusion, estolate and RV11-RV15 previously hydrolized, unit assumed
Strept. faecalis SS 19 = type: cell-based; conditions: Brain Heart Infusion, estolate and RV11-RV15 previously hydrolized, unit assumed
[6] = Mucolytic activity: obstruction of the bronchial tract after SO2 inhalation; type: in vivo, Sprague Dawley male rats; conditions: SO2, 15 days
B. subtilis SS 127 = type: cell-based; conditions: Brain Heart Infusion, estolate and RV11-RV15 previously hydrolized, unit assumed
Staph. aureus SS 07 [7] = type: cell-based; conditions: Brain Heart Infusion, estolate and RV11-RV15 previously hydrolized, unit assumed
Cl. tetani SS 17 = type: cell-based; conditions: Brain Heart Infusion, estolate and RV11-RV15 previously hydrolized, unit assumed
[8] = tested on: Strept. haemolyticus SS 17; type: cell-based; conditions: Brain Heart Infusion, estolate and RV11-RV15 previously hydrolized, unit assumed
Staph. aureus SS 09 = type: cell-based; conditions: Brain Heart Infusion, estolate and RV11-RV15 previously hydrolized, unit assumed
E. coli SS 04 = type: cell-based; conditions: Brain Heart Infusion, estolate and RV11-RV15 previously hydrolized, unit assumed
B. anthranis SS 09 = type: cell-based; conditions: B. anthranis SS 09 (14 bis); Brain Heart Infusion; estolate and RV11-RV15 previously hydrolized; unit assumed
E. coli SS 07 = type: cell-based; conditions: Brain Heart Infusion, estolate and RV11-RV15 previously hydrolized, unit assumed
D. pneumoniae SS 23 [9] = experiment: Experimental infection induced by D. pneumoniae SS 23; type: in vivo, Swiss white mice
Experimental: (§2) Swiss white mice of 20 g body weight were used, infected by parenteral administration of lethal amounts of pathogenic […] of Staph. aureus SS 07 and D. pneumoniae SS 23.
(§3) The antibiotics were administered at the time of injecting the infecting germ and 6 and 24 hours later. On the basis of the survival after 7 days, the ED50 values were determined, as reported in the following table II and III, wherein the reliability limits are indicated in brackets.

B. cereus ATCC 11778 = type: cell-based; conditions: Brain Heart Infusion, estolate and RV11-RV15 previously hydrolized, unit assumed
Ps. aeruginosa SS 10 = type: cell-based; conditions: Brain Heart Infusion, estolate and RV11-RV15 previously hydrolized, unit assumed
B. anthranis SS 08 = type: cell-based; conditions: Brain Heart Infusion, estolate and RV11-RV15 previously hydrolized, unit assumed
B. subtilis ATCC 6633 = type: cell-based; conditions: Brain Heart Infusion, estolate and RV11-RV15 previously hydrolized, unit assumed
Staph. aureus SS 07 [10] = experiment: Experimental infection induced by Staph. aureus SS 07; type: in vivo, Swiss white mice; conditions: Staphylococcus aureus, SS07, in Mus musculus, sc, 168 h, read-out: ED50 (reliability limits)
Experimental: as §2, §3

## CCC(=O)O[C@H]1[C@H](O[C@@H]2[C@@H](C)[C@H](O[C@H]3C[C@@](C)(OC)[C@@H](O)[C@H](C)O3)[C@@H](C)C(=O)O[C@H](CC)[C@@](C)(O)[C@H](O)[C@@H](C)C(=O)[C@H](C)C[C@@]2(C)O)O[C@H](C)C[C@@H]1N(C)C [RV14, erythromycin-monopropionate-S-carboxymethyl cysteinate]
Citrobacter SS 05
  MIC: > 200 µg/mL
S. heidelberg SS 18
  MIC: 100 µg/mL (≈ 127 µM)
[1]; 0.3 h
  Hematic levels in the rat: 0.72 µg/mL
[1]; 1 h
  Hematic levels in the rat: 1.85 µg/mL
[1]; 2 h
  Hematic levels in the rat: 2.55 µg/mL
[1]; 3 h
  Hematic levels in the rat: 1.39 µg/mL
[1]; 4 h
  Hematic levels in the rat: 0.65 µg/mL
[1]; 5 h
  Hematic levels in the rat: 0.54 µg/mL
[1]; 6 h
  Hematic levels in the rat: 0.07 µg/mL
[1]; rat
  absorption by oral route (in words): absorbed by oral route in a rate practically analogous to that of erythromycin estolate
E. coli SS 05
  MIC: 50 µg/mL (≈ 63.3 µM)
C. diphtheriae SS 19
  MIC: 0.01 µg/mL (≈ 0.0127 µM)
S. lutea ATCC 9341
  MIC: 0.01 µg/mL (≈ 0.0127 µM)
Br. melitensis SS 19
  MIC: 3 µg/mL (≈ 3.8 µM)
[2]
  MIC: 0.8 µg/mL (≈ 1.01 µM)
S. infantis SS 08
  MIC: 100 µg/mL (≈ 127 µM)
Staph. albus SS 04
  MIC: 0.05 µg/mL (≈ 0.0633 µM)
Sr. marcescens SS 03
  MIC: 200 µg/mL (≈ 253 µM)
Citrobacter SS 09
  MIC: > 200 µg/mL
H. pertussis SS 03
  MIC: 0.4 µg/mL (≈ 0.506 µM)
E. coli SS 06
  MIC: 25 µg/mL (≈ 31.6 µM)
Staph. aureus SS 08
  MIC: 0.05 µg/mL (≈ 0.0633 µM)
Staph. albus SS 03
  MIC: 0.1 µg/mL (≈ 0.127 µM)
H. influentiae SS 02
  MIC: 1.5 µg/mL (≈ 1.9 µM)
N. meningitidis SS 04
  MIC: 0.8 µg/mL (≈ 1.01 µM)
Acute toxicity; po, 14400 min
  LD50 (reliability limits): 3000 mg·kg
[3]; 0.30 hours, 18 min
  Hematic levels in the healthy volunteer: 1.20 µg/mL
[3]; 1 hour, 60 min
  Hematic levels in the healthy volunteer: 1.78 µg/mL
[3]; 2 hours, 120 min
  Hematic levels in the healthy volunteer: 2.28 µg/mL
[3]; 3 hours, 180 min
  Hematic levels in the healthy volunteer: 1.60 µg/mL
[3]; 4 hours, 240 min
  Hematic levels in the healthy volunteer: 1.21 µg/mL
Pr. mirabilis SS 09
  MIC: > 200 µg/mL
E. aerogenes SS 011
  MIC: 50 µg/mL (≈ 63.3 µM)
E. cloacae SS 07
  MIC: > 200 µg/mL
Kl. aerogenes SS 71
  MIC: 100 µg/mL (≈ 127 µM)
[4]; oral, 500 mg/kg, free non obstructed
  histological appearance of non obstructed bronchi: presence of bronchi having almost normal appearance
[4]; oral, 500 mg/kg
  histological appearance of obstructed bronchial tract: fully like that of the control animals
H. tubercolosis SS 03
  MIC: 50 µg/mL (≈ 63.3 µM)
Kl. pneumoniae SS 04
  MIC: 100 µg/mL (≈ 127 µM)
C. albicans SS 04
  MIC: 200 µg/mL (≈ 253 µM)
Br. abortus SS 7
  MIC: 12 µg/mL (≈ 15.2 µM)
Pr. vulgaris SS 10
  MIC: > 200 µg/mL
N. gonorreae SS 27
  MIC: 0.8 µg/mL (≈ 1.01 µM)
D. pneumoniae SS 23 [5]
  MIC: 0.05 µg/mL (≈ 0.0633 µM)
Strept. faecalis SS 19
  MIC: 0.05 µg/mL (≈ 0.0633 µM)
[6]; oral, 500 mg/kg
  Partial obstruction (% incidence): 13.33%
  Total obstruction, compact plug (% incidence): 26.66%
  Total obstruction, nodular mass (% incidence): 6.66%
  Total obstruction, pimply mass (% incidence): 6.66%
B. subtilis SS 127
  MIC: 0.05 µg/mL (≈ 0.0633 µM)
Staph. aureus SS 07 [7]
  MIC: 0.025 µg/mL (≈ 0.0316 µM)
Cl. tetani SS 17
  MIC: 0.2 µg/mL (≈ 0.253 µM)
[8]
  MIC: 1.5 µg/mL (≈ 1.9 µM)
Staph. aureus SS 09
  MIC: 0.1 µg/mL (≈ 0.127 µM)
E. coli SS 04
  MIC: 100 µg/mL (≈ 127 µM)
B. anthranis SS 09
  MIC: 0.8 µg/mL (≈ 1.01 µM)
E. coli SS 07
  MIC: 50 µg/mL (≈ 63.3 µM)
D. pneumoniae SS 23 [9]; os, D. pneumoniae SS 23, mg/kg of erythromycin, survival after 7 days, 10080 min
  ED50 (reliability limits): 123.74 (148.77-102.92) mg/kg
B. cereus ATCC 11778
  MIC: 0.4 µg/mL (≈ 0.506 µM)
Ps. aeruginosa SS 10
  MIC: 100 µg/mL (≈ 127 µM)
B. anthranis SS 08
  MIC: 0.4 µg/mL (≈ 0.506 µM)
B. subtilis ATCC 6633
  MIC: 0.025 µg/mL (≈ 0.0316 µM)

## CCOC(=O)CCC(=O)O[C@H]1[C@H](O[C@@H]2[C@@H](C)[C@H](O[C@H]3C[C@@](C)(OC)[C@@H](O)[C@H](C)O3)[C@@H](C)C(=O)O[C@H](CC)[C@@](C)(O)[C@H](O)[C@@H](C)C(=O)[C@H](C)C[C@@]2(C)O)O[C@H](C)C[C@@H]1N(C)C [erythromycin ethyl succinate, reference compound]
[4]; i.m., 250 mg/kg
  bronchial epithelium reaction: the bronchial epithelium reacts through a proliferation of cells, mainly cup-shaped cells
  histological appearance of obstructed bronchial tract: the bronchial obstruction is formed by abundant mucus admixed with fibrin
[6]; i.m., 250 mg/kg
  Partial obstruction (% incidence): 20%
  Total obstruction, compact plug (% incidence): 53.33%
  Total obstruction, nodular mass (% incidence): 26.66%
  Total obstruction, pimply mass (% incidence): 13.33%
D. pneumoniae SS 23 [9]; Streptococcus pneumoniae, SS23, in Mus musculus, sc, 168 h, read-out: ED50 (reliability limits)
  ED50: 54.2 mg/kg
Staph. aureus SS 07 [10]
  ED50: 1.03 mg/kg

## CC[C@H]1OC(=O)[C@H](C)[C@@H](O[C@H]2C[C@@](C)(OC)[C@@H](O)[C@H](C)O2)[C@H](C)[C@@H](O[C@@H]2O[C@H](C)C[C@H](N(C)C)[C@H]2O)[C@](C)(O)C[C@@H](C)C(=O)[C@H](C)[C@@H](O)[C@]1(C)O [erythromycin hydrochloride, reference compound]
Acute toxicity; iv, mortality 10 days after treatment, mice, read-out: LD50 (reliability limits)
  LD50 at 240 h: 377 mg/kg
